This data set in a line: Pharmacokinetic evaluation of Bupivacaine (BU) and Formula I (1-1) in Sprague-Dawley rats (blood and brain concentrations). The conditions noted are these: rat, male Sprague-Dawley rats, intravenous, 3 mg/kg, n=5. It counts as in vivo. As to the method:
Male specific pathogen-free Sprague-Dawley rats weighing 300-350 g were obtained from the Laboratory. The animals had free access to food and water. The rat was anaesthetized with urethane 1.0 g/mL and chloralose 0.1 g/mL (1 mL/kg, i.p.) before surgery. The femoral vein was cannulated for further drug administration, and the rat's body temperature was maintained by heating pad during the experiment. All rats remained anaesthetized during the experimental period over which the Formula I (1-1) and BU concentrations in blood, brain and bile were monitored, and they were euthanized by overdose CO2 under the anaesthetic after the experimental endpoint.
Bupivacaine (3 mg/mL) was prepared in 0.9%(w/v) sodium chloride. Formula I (1-1) equivalent of BU 3 mg/mL. Rats were divided into the following groups (n=5 for each group) and received drugs intravenously: group 1 treated with (20 mg/kg) 10 min before BU (3 mg/kg) administration, group 2 treated with Formula I (1-1) (3 mg/kg).
The chromatographic system consisted of a PM-80 chromatographic pump (BAS, West Lafayette, Ind., USA), an off-line injector (CMA/140, Stockholm, Sweden) equipped with a […] sample loop injector (Rheodynemodel7125) and a UV-Vis detector (Soma, Tokyo, Japan) that operated at room temperature (25±2° C.). Separation was achieved on a LiChrosphere60RP-select B column (4.6 mm×250 mm, […], Merck). The mobile phase for plasma, brain homogenate, blood dialysate and brain dialysate was comprised of 10 mM potassium dihydrogenphosphate-acetonitrile-triethylamine (67:33:0.01), adjusted to pH4.3 with H3PO4. The mobile phase for bile dialysate consisted of 10 mM potassium dihydrogen phosphate-acetonitrile-triethylamine (60:40:0.01), adjusted to pH6.0 with H3PO4. The flow rate was set at 1.0 mL/min for both mobile phases.

The term AUC denotes the area under the concentration-time curve, a measure of exposure. Low readings indicate low exposure, high ones high exposure. Usually half-life stands for how long it takes for the measured level to halve. Higher therefore signals slow decline. By Cmax is commonly meant the peak of the concentration-time curve.

Where the note is “Blood”, `CCCCN1CCCCC1C(=O)Nc1c(C)cccc1C` (stereo not shown) [BU, Bupivacaine] had an AUC of 1370 ng·h/mL and a half-life of 4 ± 2 min. Under “Brain”, this compound gave an AUC of 250 ng·h/mL and a Cmax of 560 ± 130 ng/mL.

The values above are taken from patent US9173877B1, “Compositions and methods for the treatment of local pain” (CELLIX BIO PRIVATE LIMITED, priority 2014, dated 2015).
